Reference: patent publication US20220354811A1, “METHODS AND COMPOSITIONS FOR MODULATING MACROPHAGES POLARIZATION” (INSERM (INSTITUT NATIONAL DE LA SANTÉ ET DE LA RECHERCHE …, priority 2019, published 2022)

Legend:
human primary monocytes = test: CSF-1-induced monocyte differentiation into macrophages (flow cytometry, CD71/CD163 and CD16/CD163 double positive cells); type: cell-based
Text: FIG. 1. […] (A) Macrophagic differentiation of monocytes from 3 different healthy donors was examined by 3-color flow cytometric analysis. The results are expressed as percentage of CD71/CD163 or CD16/CD163 double positive cells and represent the mean±SD of 3 independent experiments performed in duplicate. (B) Cell death from 3 different healthy donors was examined by flow cytometry analysis. The results are expressed as percentage of AnnexinV/DAPI double positive cells and represent the mean±SD of 3 independent experiments performed in duplicate. n.s. denotes not statistically significant according to a paired student t test. *P<0.05, **P<0.01, ***P<0.001 according to a paired student t test (versus d2).
FIG. 2. […] Macrophagic differentiation of monocytes from 3 different healthy donors was examined by 3-color flow cytometric analysis. The results are expressed as percentage of CD71/CD163 or CD16/CD163 double positive cells and represent the mean±SD of 3 independent experiments performed in duplicate. n.s. denotes not statistically significant according to a paired student t test. *P<0.05, **P<0.01, ***P<0.001 according to a paired student t test (versus d2).
Human peripheral […] were obtained from healthy donors with informed consent following the Declaration of Helsinki according to recommendations of an independent scientific review board. The project has been validated by The Etablissement Francais du Sang, the French national agency for blood collection (protocol N°ALM/PLER/FO/001). Blood samples were collected using ethylene diamine tetraacetic acid-containing tubes. Mononucleated cells were first isolated using Ficoll Hypaque (Eurobio, CMSMSL0101). Then, we used the autoMACS® Pro Separator (Miltenyi, France) to perform cell enrichment. An initial positive selection, which included antibody targeting CD14, was used for monocyte enrichment (Miltenyi, 130-050-201). Purified monocytes from human were grown in RPMI 1640 medium with glutamax-I (Life Technologies, 61870044) supplemented with 10% (vol/vol) foetal bovine serum (Life Technologies). Macrophage differentiation was induced by adding into the culture medium 100 ng/mL CSF-1 and was visualized using standard optics (20x/0.35 Ph1) equipped with an AxioCam ERc camera (Zeiss, France). Phase images of the cultures were recorded with the Zen 2 software (Zeiss).
To analyze the macrophagic differentiation of monocytes, the cells were washed with ice-cold phosphate buffered saline (PBS, Life Technologies, 14190169), incubated at 4° C. for 10 min in PBS/bovine serum albumin (BSA 0.5%, Dutscher, 871002) with anti-CD16, anti-CD71 and anti-CD163 or isotype controls (Miltenyi and BD Biosciences, catalog numbers were 130-113-396, 130-097-628 and 551374). Finally, the cells were washed and fixed in 2% paraformaldehyde (EMS, 15710). To perform macrophage polarization, purified monocytes were plated at 0.3×10^6 per mL in RPMI 1640 medium with glutamax-I supplemented with 10% (vol/vol) fetal bovine serum plus CSF-1 for 5+2 days to differentiate into M0 macrophages. 20 ng/mL IL-4 (Miltenyi, 130-094-117) was added after 5 days of differentiation for two days to polarize into M2-macrophages. […] Fluorescence was measured with a MACSQuant® Analyzer (Miltenyi, Paris, France). […] Fluorescence was measured with a MACSQuant® Analyzer (Miltenyi, Paris, France). […]

[1] = test system: human freshly isolated monocytes; test: Spontaneous apoptosis of untreated monocytes cultured without CSF-1 (Annexin V staining); type: cell-based; settings: 24 h in culture without CSF-1

Structure (SMILES) | concentrations with strong inhibitory effect on macrophagic differentiation (human primary monocytes; CSF-1 2 days, Emricasan added at day 0, three different donors) [µM] | concentration range that efficiently inhibited monocyte differentiation (human primary monocytes; same-experiment comparison, added only one time, CSF-1 2 days) [µM] | concentration sufficient to abrogate Annexin V staining [1] [µM] | concentration range of dose-dependent inhibition of macrophagic differentiation (human primary monocytes; added at day 0 only, inhibition weak compared to Emricasan) [µM] | concentrations with significant inhibitory effect on monocyte differentiation (human primary monocytes; only when added twice (day 0 and day 1), several donors) [µM] | concentration necessary to achieve inhibition identical to Emricasan (human primary monocytes; same-experiment comparison, 2 successive treatments (days 0 and 1)) [µM]
C[C@H](NC(=O)C(=O)Nc1ccccc1C(C)(C)C)C(=O)N[C@@H](CC(=O)O)C(=O)COc1c(F)c(F)cc(F)c1F [Emricasan, (S)-3-((S)-2-(2-((2-(tert-Butyl)phenyl)amino)-2-oxoacetamido)propanamido)-4-oxo-5-(2,3,5,6-tetrafluorophenoxy)pentanoic acid] | 1 to 2 | 1.5 to 2.5 | 2 |  |  | 
CC(C)[C@H](NC(=O)c1ccc2ccccc2n1)C(=O)N[C@@H](CC(=O)O)C(=O)COc1c(F)cccc1F [Q-VD-OPh] |  |  | ≤ 5 | 75 to 125 | 100 to 125 | 100
